Reference: US10603335B2, “Cancer treatment combination compositions, methods and uses” (Board of Supervisors of Louisiana State University and …, priority 2016, dated 2020)

Legend:
[1] = tested on: cleaved PARP, XIAP and cIAP2 in Panc-1 cells; assay: Western blot of apoptosis markers and inhibitors of apoptosis, Panc-1; type: cell-based; details: for apoptosis marker cleaved PARP: 24 h post-treatment, LHRH-curcumin 10-100 uM, gemcitabine 1-20 uM
Procedure: (§1) Pancreatic cells were collected after trypsinization and seeded in 12-well plates for 24 h before treatments. Treatments were performed as described in the Figure legends. Following treatment, whole cell lysates were collected in Laemmli buffer and analyzed by Western blot. The following primary antibodies were used: XIAP, c-IAP2, cleaved PARP, Caspase-3 (all from Cell Signaling), actin (Santa Cruz) and LHRHR (Abcam).
Western blot analysis. Actin, GAPDH and Ponceau staining were used as loading controls. Gemcitabine was diluted in water. Curcumin and LHRH-curcumin were diluted in DMSO. Cells were treated as follows:
Western blot analysis. Actin, GAPDH and Ponceau staining were used as loading controls. Gemcitabine was diluted in water. Curcumin and LHRH-curcumin were diluted in DMSO. The cells were treated as follows:
Western blot analysis. Actin was used as loading control. Both gemcitabine and LHRH-curcumin were diluted in water.

[2] = tested on: PATX173 tissue slices; assay: Live Tissue Sensitivity Assay (LTSA), PATX173; type: cell-based; details: 72 hours
Procedure: (§2) Animal experiment protocol was reviewed and approved by The University of Texas MD Anderson Cancer Center (Houston, Tex.) institutional review board and in accordance with the Guidelines for the Care and Use of Laboratory Animals published by the National Institutes of Health. PDXs were grown from cryopreserved early passages of PDXs in nude mice as described in previous publications (Kim M P, et al, Nat Protoc 2009; 4(11): 1670-80). Briefly, tumor samples stored in CryoStor™ CS10 storage medium were recovered and cut into about 2 mm3 fragments, soaked in Matrigel, and implanted into the subcutaneous space of Balb/c nude mice (5 mice/PDX). Tumors were harvested when they reach 1.5 cm in diameter for generating tissue slices for drug testing with quadruplicates.
(§3) About 100 tissue slices were produced from 1 tumorgraft with tissue slicer and arrayed in 96-well plates with previously established method (Roife D, et al, Clin Cancer Res 2016). […] Same volume of medium with 0.1% DMSO was added into control wells. After 72 hours, tissue viabilities were measured with PrestoBlue method. Viability inhibition will be calculated through normalization of viabilities of tissue slices treated with inhibitor against the viability of control (DMSO treated) slices. Inhibition of viability was further analyzed with t-test. […]

[3] = tested on: Mia-PaCa-2 cancer cell xenografts; assay: Mia-PaCa-2 subcutaneous xenograft tumor growth; type: in vivo, SCID/bg mice; details: IP
Procedure: (§4) Male SCID/bg mice (5 weeks old; Taconic Biosciences, NY) were housed in the standard mouse Plexiglas cages in a room maintained at constant temperature and humidity under a 12 h light and darkness cycle. The experimental protocol was reviewed and approved by the Institutional Animal Care and Use Committee at the LSUHSC Shreveport.
Mia-PaCa-2 cells were harvested from cell cultures after trypsinization. The cells were washed once in serum-free medium and re-suspended in HBSS. Only suspensions consisting of single cells with >90% viability were used for the injections. Mice were injected s.c. on the right hind flank with 5×10^6 MIA-PaCa cells (ATCC, VA) in 50% Matrigel/HBSS with 26 Ga syringes.
(§5) The vehicle treated group received an equivalent amount of PBS. Tumor volumes were measured with calipers once a week and body weights of mice were measured once a week. Tumor volumes were calculated by the formula: V(mm3)=(length×width*2)/2, in which width was the shortest measurement in millimeters. Mice were necropsied 10 days after the last treatment for the low dose treatment (day 35 after the randomization and day 55 from the tumor cell implantation) or 2 days after the last treatment for high dose treatment (day 28 after the randomization and 48 from the tumor cell implantation). Tumors were dissected, weighed and photographed.

[4] = Body weight of tumor-bearing mice during treatment; details: IP
Procedure: as §4, §5

[5] = tested on: cleaved PARP, XIAP and cIAP2 in PATC53 cells; assay: Western blot of apoptosis markers, PATC53; type: cell-based
Procedure: PATC53 cells were treated as described and Western blot was perform in order to detect apoptosis markers (cleaved PARP) and inhibitors of apoptosis (XIAP and cIAP2) 24 h post-treatment. Actin was used as loading controls.
PATC53 cells were treated as presented and Western blot was perform in order to detect apoptosis markers (cleaved PARP) and inhibitors of apoptosis (XIAP and cIAP2) 48 h post-treatment. Actin was used as loading controls.
as §1, with “Pancreatic cancer” for “Pancreatic”, “treatment whole-cell” for “treatment, whole cell”, “used:” for “used: XIAP, c-IAP2,”, “c-IAP2, XIAP, cleaved Parp-1” for “Caspase-3”, “Cruz).” for “Cruz) and LHRHR (Abcam).”

[6] = tested on: PATX193 tissue slices; assay: Live Tissue Sensitivity Assay (LTSA), PATX193; type: cell-based; details: 72 hours
Procedure: as §2, §3

[7] = four mice treated with LHRH-curcumin twice a week (20 mg/kg)
Procedure: Samples of tumor tissue were weighed, then pulverized using a Bessman Tissue Pulverizer cooled 3-5 minutes in liquid nitrogen. Resultant powder was then placed in glass homogenizing chamber, mixed in PBS to 20% solution, and crushed to produce final homogenate. 200 Ml aliquot of homogenate was dispensed in Axygen 2 mL clear microtube (Part #: MCT-200-C-S). Each sample was extracted with 1 mL 10% methanol/90% ethyl acetate, vortexed, and spun 30 minutes at 14,000 rpm in a cold room centrifuge. The upper organic phase layer was then removed and placed in separate microcentrifuge tubes. The procedure was repeated, and pooled tumor extracts were concentrated using a Savant SpeedVac. Samples were reconstituted in 100 μL of 1 mM ascorbic acidic MeOH (pH 4.6), mixed in a sonication bath for 2 minutes, and 75 μL were injected on-column. Reverse-phase HPLC (Agilent 1100 series) with a Thermo ODS Hypersil 5 μm 250 mm×4.6 mm analytical column (Part #: 30105-252130) operated at ambient temperature was used to quantify curcumin in tumor. The mobile phase was 0.1% TFA (Mobile A) and acetonitrile with 0.08% TFA (Mobile B). […] With all analyses performed at 0.5 mL/min flow rate and fluorescence detection at Ex 420 nm and Em 524 nm, curcumin eluted at about 16.5 minutes.

[8] = tested on: TGFβ pathway genes in PATC53 pancreatic cancer cells; assay: Quantitative PCR of TGFβ pathway genes, PATC53; type: cell-based; details: TGFβ 100 ng/ml, LHRH-curcumin 20 μM and 50 μM
Procedure: GAPDH was used as a reference.
mRNA levels of Smad3, SNAI1, SNAI2, TGFBRI, TGFBRII, GADD45 and XIAP were determined by quantitative real-time PCR using the Roche Universal Library Probe protocol. Thermal cycling was carried out using the LightCycler96 system from Roche under the following conditions: 95° C. for 10 min and 40 cycles at 95° C. for 15 s and 55° C. for 60 s. mRNA expression for any given gene is represented as comparative to the control-treated cells. GAPDH was used as the housekeeping gene of reference.

[9] = tested on: non-target control (NT) Panc-1 spheroides; assay: 3D spheroid growth, non-target control (NT) Panc-1; type: cell-based; details: 30 μM
[10] = physchem; details: saline (PBS)
[11] = 24 h, curcumin, LHRH-curcumin 50 uM and 100 uM alone, gemcitabine alone
[12] = high doses: gemcitabine 100 mg/kg once a week, LHRH-curcumin 40 mg/kg twice a week, day 48
[13] = low doses: gemcitabine 50 mg/kg once a week, LHRH-curcumin 20 mg/kg twice a week, day 55
[14] = high doses: gemcitabine 100 mg/kg once a week, LHRH-curcumin 40 mg/kg twice a week
[15] = low doses: gemcitabine 50 mg/kg once a week, LHRH-curcumin 20 mg/kg twice a week

Row | Compound | XIAP and c-IAP2 protein levels [1, 11] | apoptosis marker cleaved PARP ([1]; curcumin) | tissue slice viability ([2]; Gem 10 μM) | Tumor volume at necropsy [3, 12] | Tumor volume at necropsy [3, 13] | body weight or body condition [4, 14] | body weight or body condition [4, 15] | response of PATC53 cells (apoptosis markers) ([5]; 24 h post-treatment) | tissue slice viability ([6]; Gem 10 μM) | XIAP and c-IAP2 protein levels ([1]; 24 h, 50 uM in the presence of gemcitabine (5 uM)) | XIAP and c-IAP2 protein levels ([1]; 72 h, LHRH-curcumin 10 uM and 20 uM in the presence of gemcitabine (5 uM and 10 uM)) | Sensitivity To LHRH-C ([2]; single agent) | free curcumin in tumor tissue extract (HPLC peak at approximately 16.5 min) [7] | mRNA levels of GADD45 and XIAP [8] | mRNA levels of TGFβ signaling genes (SMAD3, SNAI1, SNAI2, TGFBRI, TGFBRII) ([8]; 24 h and 48 h) | spheroids growth [9] | apoptosis inhibitors (XIAP and cIAP2) ([5]; 48 h post-treatment, 30 μM) | Sensitivity To LHRH-C ([6]; single agent) | solubility [10] [mg/mL]
1 | Nc1ccn([C@@H]2O[C@H](CO)[C@@H](O)C2(F)F)c(=O)n1 [gemcitabine, 2′,2′-difluoro 2′deoxycytidine, reference compound] | doesn't affect XIAP and c-IAP2 levels | no cleaved PARP was detected | 89.87 | significantly reduced | significantly reduced | does not negatively impact body weight or body condition | does not negatively impact body weight or body condition | resistance | 92.70 |  |  |  |  |  |  |  |  |  | 
2 | COc1cc(/C=C/C(=O)CC(=O)/C=C/c2ccc(OC(=O)CCCC(=O)NCCCC[C@@H](NC(=O)[C@H](Cc3ccc(O)cc3)NC(=O)[C@H](CO)NC(=O)[C@H](Cc3c[nH]c4ccccc34)NC(=O)[C@H](Cc3c[nH]cn3)NC(=O)[C@@H]3CCC(=O)N3)C(=O)N[C@@H](CC(C)C)C(=O)N[C@@H](CCCNC(=N)N)C(=O)N3CCC[C@H]3C(=O)NCC(N)=O)c(OC)c2)ccc1O [LHRH-curcumin, [DLys6]-LHRH-Curcumin] | down-regulated | initiate apoptosis as illustrated by the presence of cleaved PARP |  | significantly reduced | significantly reduced | does not negatively impact body weight or body condition | does not negatively impact body weight or body condition |  |  | down-regulated | down-regulated | Resistant | free curcumin present in the extract | affected | down-regulated | superior to that of LHRH or curcumin alone | Modest reduction of apoptosis inhibitors | Sensitive (The tissue was defined as sensitive to the treatment if both p<0.05 and at least 30% of tissue slice viability on average was inhibited) | ≥ 24
